{"source": "the NIST ThermoML archive (doi:10.1021/je400250u)", "note": "± gives the expanded uncertainty stated by the source."}
{"assay": "xn = mol fraction of the nth substance listed", "conditions": "293.15 K; 100 kPa; Liquid; Capillary tube (Ostwald / Ubbelohde) method; x2 = 0", "units": {"viscosity": "mPa·s"}}
{"molecule": "CCCCCCCCCC", "note": "[decane] + C1CC[C@H]2CCCC[C@@H]2C1", "viscosity": "0.916 ± 0.012"}
{"molecule": "CCCCCCCCCC", "note": "[decane] + C1CC[C@H]2CCCC[C@H]2C1", "viscosity": "0.916 ± 0.012"}
{"molecule": "CCCCCCCCC", "note": "[nonane] + C1CC[C@H]2CCCC[C@@H]2C1", "viscosity": "0.724 ± 0.011"}
{"molecule": "CCCCCCCCC", "note": "[nonane] + C1CC[C@H]2CCCC[C@H]2C1", "viscosity": "0.724 ± 0.011"}
{"molecule": "CCCCCCCCCCC", "note": "[undecane] + C1CC[C@H]2CCCC[C@@H]2C1", "viscosity": "1.17 ± 0.014"}
{"molecule": "CCCCCCCCCCC", "note": "[undecane] + C1CC[C@H]2CCCC[C@H]2C1", "viscosity": "1.17 ± 0.014"}
{"assay": "xn = mol fraction of the nth substance listed", "conditions": "293.15 K; 100 kPa; Liquid; Vibrating tube method; x2 = 0", "units": {"mass density": "kg/m3"}}
{"molecule": "CCCCCCCCCC", "note": "[decane] + C1CC[C@H]2CCCC[C@@H]2C1", "mass density": "731.14 ± 0.23"}
{"molecule": "CCCCCCCCCC", "note": "[decane] + C1CC[C@H]2CCCC[C@H]2C1", "mass density": "731.14 ± 0.23"}
{"molecule": "CCCCCCCCC", "note": "[nonane] + C1CC[C@H]2CCCC[C@@H]2C1", "mass density": "717.94 ± 0.24"}
{"molecule": "CCCCCCCCC", "note": "[nonane] + C1CC[C@H]2CCCC[C@H]2C1", "mass density": "717.94 ± 0.24"}
{"molecule": "CCCCCCCCCCC", "note": "[undecane] + C1CC[C@H]2CCCC[C@@H]2C1", "mass density": "740.28 ± 0.32"}
{"molecule": "CCCCCCCCCCC", "note": "[undecane] + C1CC[C@H]2CCCC[C@H]2C1", "mass density": "740.28 ± 0.32"}
{"assay": "xn = mol fraction of the nth substance listed", "conditions": "298.15 K; 100 kPa; Liquid; Capillary tube (Ostwald / Ubbelohde) method; x2 = 0", "units": {"viscosity": "mPa·s"}}
{"molecule": "CCCCCCCCCC", "note": "[decane] + C1CC[C@H]2CCCC[C@@H]2C1", "viscosity": "0.852 ± 0.012"}
{"molecule": "CCCCCCCCCC", "note": "[decane] + C1CC[C@H]2CCCC[C@H]2C1", "viscosity": "0.852 ± 0.012"}
{"molecule": "CCCCCCCCC", "note": "[nonane] + C1CC[C@H]2CCCC[C@@H]2C1", "viscosity": "0.681 ± 0.011"}
{"molecule": "CCCCCCCCC", "note": "[nonane] + C1CC[C@H]2CCCC[C@H]2C1", "viscosity": "0.681 ± 0.011"}
{"molecule": "CCCCCCCCCCC", "note": "[undecane] + C1CC[C@H]2CCCC[C@@H]2C1", "viscosity": "1.086 ± 0.014"}
{"molecule": "CCCCCCCCCCC", "note": "[undecane] + C1CC[C@H]2CCCC[C@H]2C1", "viscosity": "1.086 ± 0.014"}
{"assay": "xn = mol fraction of the nth substance listed", "conditions": "298.15 K; 100 kPa; Liquid; Vibrating tube method; x2 = 0", "units": {"mass density": "kg/m3"}}
{"molecule": "CCCCCCCCCC", "note": "[decane] + C1CC[C@H]2CCCC[C@@H]2C1", "mass density": "727.43 ± 0.23"}
{"molecule": "CCCCCCCCCC", "note": "[decane] + C1CC[C@H]2CCCC[C@H]2C1", "mass density": "727.43 ± 0.23"}
{"molecule": "CCCCCCCCC", "note": "[nonane] + C1CC[C@H]2CCCC[C@@H]2C1", "mass density": "714.11 ± 0.24"}
{"molecule": "CCCCCCCCC", "note": "[nonane] + C1CC[C@H]2CCCC[C@H]2C1", "mass density": "714.11 ± 0.24"}
{"molecule": "CCCCCCCCCCC", "note": "[undecane] + C1CC[C@H]2CCCC[C@@H]2C1", "mass density": "736.63 ± 0.32"}
{"molecule": "CCCCCCCCCCC", "note": "[undecane] + C1CC[C@H]2CCCC[C@H]2C1", "mass density": "736.63 ± 0.32"}
{"assay": "xn = mol fraction of the nth substance listed", "conditions": "303.15 K; 100 kPa; Liquid; Capillary tube (Ostwald / Ubbelohde) method; x2 = 0", "units": {"viscosity": "mPa·s"}}
{"molecule": "CCCCCCCCCC", "note": "[decane] + C1CC[C@H]2CCCC[C@@H]2C1", "viscosity": "0.799 ± 0.012"}
{"molecule": "CCCCCCCCCC", "note": "[decane] + C1CC[C@H]2CCCC[C@H]2C1", "viscosity": "0.799 ± 0.012"}
{"molecule": "CCCCCCCCC", "note": "[nonane] + C1CC[C@H]2CCCC[C@@H]2C1", "viscosity": "0.64 ± 0.011"}
{"molecule": "CCCCCCCCC", "note": "[nonane] + C1CC[C@H]2CCCC[C@H]2C1", "viscosity": "0.64 ± 0.011"}
{"molecule": "CCCCCCCCCCC", "note": "[undecane] + C1CC[C@H]2CCCC[C@@H]2C1", "viscosity": "1.004 ± 0.013"}
{"molecule": "CCCCCCCCCCC", "note": "[undecane] + C1CC[C@H]2CCCC[C@H]2C1", "viscosity": "1.004 ± 0.013"}
{"assay": "xn = mol fraction of the nth substance listed", "conditions": "303.15 K; 100 kPa; Liquid; Vibrating tube method; x2 = 0", "units": {"mass density": "kg/m3"}}
{"molecule": "CCCCCCCCCC", "note": "[decane] + C1CC[C@H]2CCCC[C@@H]2C1", "mass density": "723.64 ± 0.23"}
{"molecule": "CCCCCCCCCC", "note": "[decane] + C1CC[C@H]2CCCC[C@H]2C1", "mass density": "723.64 ± 0.23"}
{"molecule": "CCCCCCCCC", "note": "[nonane] + C1CC[C@H]2CCCC[C@@H]2C1", "mass density": "710.2 ± 0.24"}
{"molecule": "CCCCCCCCC", "note": "[nonane] + C1CC[C@H]2CCCC[C@H]2C1", "mass density": "710.2 ± 0.24"}
{"molecule": "CCCCCCCCCCC", "note": "[undecane] + C1CC[C@H]2CCCC[C@@H]2C1", "mass density": "732.93 ± 0.32"}
{"molecule": "CCCCCCCCCCC", "note": "[undecane] + C1CC[C@H]2CCCC[C@H]2C1", "mass density": "732.93 ± 0.32"}
{"assay": "xn = mol fraction of the nth substance listed", "conditions": "308.15 K; 100 kPa; Liquid; Capillary tube (Ostwald / Ubbelohde) method; x2 = 0", "units": {"viscosity": "mPa·s"}}
{"molecule": "CCCCCCCCCC", "note": "[decane] + C1CC[C@H]2CCCC[C@@H]2C1", "viscosity": "0.751 ± 0.011"}
{"molecule": "CCCCCCCCCC", "note": "[decane] + C1CC[C@H]2CCCC[C@H]2C1", "viscosity": "0.751 ± 0.011"}
{"molecule": "CCCCCCCCC", "note": "[nonane] + C1CC[C@H]2CCCC[C@@H]2C1", "viscosity": "0.604 ± 0.011"}
{"molecule": "CCCCCCCCC", "note": "[nonane] + C1CC[C@H]2CCCC[C@H]2C1", "viscosity": "0.604 ± 0.011"}
{"molecule": "CCCCCCCCCCC", "note": "[undecane] + C1CC[C@H]2CCCC[C@@H]2C1", "viscosity": "0.931 ± 0.013"}
{"molecule": "CCCCCCCCCCC", "note": "[undecane] + C1CC[C@H]2CCCC[C@H]2C1", "viscosity": "0.931 ± 0.013"}
{"assay": "xn = mol fraction of the nth substance listed", "conditions": "308.15 K; 100 kPa; Liquid; Vibrating tube method; x2 = 0", "units": {"mass density": "kg/m3"}}
{"molecule": "CCCCCCCCCC", "note": "[decane] + C1CC[C@H]2CCCC[C@@H]2C1", "mass density": "719.84 ± 0.23"}
{"molecule": "CCCCCCCCCC", "note": "[decane] + C1CC[C@H]2CCCC[C@H]2C1", "mass density": "719.84 ± 0.23"}
{"molecule": "CCCCCCCCC", "note": "[nonane] + C1CC[C@H]2CCCC[C@@H]2C1", "mass density": "706.29 ± 0.25"}
{"molecule": "CCCCCCCCC", "note": "[nonane] + C1CC[C@H]2CCCC[C@H]2C1", "mass density": "706.29 ± 0.25"}
